The values that follow come from ChEMBL document CHEMBL1130994, “3-trifluoromethylcarbacephems: synthesis of broad spectrum antibacterial compounds” (1998).

Holding throughout (type): functional
One assay concerns Enterococcus faecalis. The assay is described as follows: Compound was evaluated for inhibitory activity against 2041 Enterococcus faecalis Gp.D streptococcus penicillin susceptible.
In assay [1] the test system is Escherichia coli. The assay is described as follows: Compound was evaluated for inhibitory activity against EC14 Escherichia coli sensitive.
The subject of assay [2] is Klebsiella pneumoniae. As to the kind of experiment: Compound was evaluated for inhibitory activity against X26 Klebsiella pneumoniae.
Another assay relates to Streptococcus pneumoniae. As to the kind of experiment: Compound was evaluated for inhibitory activity against Park S Streptococcus pneumoniae.
For a further assay, the system named is Providencia stuartii. As to the kind of experiment: Compound was evaluated for inhibitory activity against PR33 Providencia stuartii.
Assay [3] relates to Klebsiella aerogenes. The assay is described as follows: Compound was evaluated for inhibitory activity against EB17 Enterobacter aerogenes.
The subject of a further assay is Acinetobacter. As to the kind of experiment: Compound was evaluated for inhibitory activity against AC12 Acinetobacter.
In assay [4] the test system is Serratia. The assay is described as follows: Compound was evaluated for inhibitory activity against X99 Serratia.
A further assay concerns Citrobacter. The assay is described as follows: Compound was evaluated for inhibitory activity against CF17 Citrobacter.
A further assay concerns Providencia rettgeri. As to the kind of experiment: Compound was evaluated for inhibitory activity against C24 Providencia rettgeri.
In assay [5] the test system is Haemophilus influenzae. The assay is described as follows: Compound was evaluated for inhibitory activity against 76 Haemophilus influenzae beta-lactamase.
Assay [6] deals with Haemophilus influenzae. As to the kind of experiment: Compound was evaluated for inhibitory activity against C.L Haemophilus influenzae ampicillin sensitive.
The subject of assay [7] is Enterobacter cloacae. As to the kind of experiment: Compound was evaluated for inhibitory activity against 265a Enterobacter cloacae beta-lactamase.
Assay [8] relates to Staphylococcus aureus. As to the kind of experiment: Compound was evaluated for inhibitory activity against X400S Staphylococcus aureus methicillin resistant and macrolide resistant.
Assay [9] has as its system Staphylococcus aureus. The assay is described as follows: Compound was evaluated for inhibitory activity against X1.1 Staphylococcus aureus penicillin sensitive.
The subject of assay [10] is Klebsiella aerogenes. As to the kind of experiment: Compound was evaluated for inhibitory activity against C32 Enterobacter aerogenes.
For assay [11], the system named is Escherichia coli. The assay is described as follows: Compound was evaluated for inhibitory activity against TEM Escherichia coli beta-lactamase.
The next assay deals with Morganella morganii. The assay is described as follows: Compound was evaluated for inhibitory activity against PR15 Morganella morganii.
In assay [12] the test system is Staphylococcus aureus. As to the kind of experiment: Compound was evaluated for inhibitory activity against S13E Staphylococcus aureus methicillin resistant penicillin resistant macrolide sensitive (PBP2a producer).
The test system of assay [13] is Klebsiella pneumoniae. The assay is described as follows: Compound was evaluated for inhibitory activity against KAE Klebsiella pneumoniae.
The subject of another assay is Salmonella. The assay is described as follows: Compound was evaluated for inhibitory activity against X514 Salmonella.
Assay [14] relates to Enterobacter cloacae. As to the kind of experiment: Compound was evaluated for inhibitory activity against EB5 Enterobacter cloacae.
Assay [15] deals with Serratia. The assay is described as follows: Compound was evaluated for inhibitory activity against SE3 Serratia.
In the next assay the test system is Streptococcus pyogenes. The assay is described as follows: Compound was evaluated for inhibitory activity against C203 Streptococcus pyogenes Gp.A.

SMILES strings stand for the structures. In brackets after ≈: the same amount, converted by molar mass.

Regarding `N[C@@H](C(=O)N[C@@H]1C(=O)N2C(C(=O)O)=C(C(F)(F)F)CC[C@H]12)c1cccc(Br)c1`, the MIC with Enterococcus faecalis was found to be 8 µM (≈ 3.7 µg/mL); in the assay with Escherichia coli [1] it was 4 µM (≈ 1.85 µg/mL); in the assay on Klebsiella pneumoniae [2] it was 0.25 µM (≈ 0.116 µg/mL); against Streptococcus pneumoniae, 0.13 µM (≈ 0.0601 µg/mL); against Providencia stuartii, 16 µM (≈ 7.4 µg/mL); in the assay on Klebsiella aerogenes [3] it was 32 µM (≈ 14.8 µg/mL). Moreover, the MIC was determined as 16 µM (≈ 7.4 µg/mL) against Acinetobacter; 128 µM (≈ 59.2 µg/mL) with Serratia [4]; 32 µM (≈ 14.8 µg/mL) with Citrobacter; 16 µM (≈ 7.4 µg/mL) in the assay with Providencia rettgeri; 1 µM (≈ 0.462 µg/mL) against Haemophilus influenzae [5]; 0.5 µM (≈ 0.231 µg/mL) with Haemophilus influenzae [6]. The MIC against Enterobacter cloacae [7] is 64 µM (≈ 29.6 µg/mL); in the assay with Staphylococcus aureus [8] it was 16 µM (≈ 7.4 µg/mL); with Staphylococcus aureus [9] it was 1 µM (≈ 0.462 µg/mL); against Klebsiella aerogenes [10] it was 16 µM (≈ 7.4 µg/mL); against Escherichia coli [11], 4 µM (≈ 1.85 µg/mL); against Morganella morganii, 16 µM (≈ 7.4 µg/mL). Also, the MIC against Staphylococcus aureus [12] was 8 µM (≈ 3.7 µg/mL); with Klebsiella pneumoniae [13], 16 µM (≈ 7.4 µg/mL); against Salmonella, 4 µM (≈ 1.85 µg/mL); in the assay with Enterobacter cloacae [14], 64 µM (≈ 29.6 µg/mL); against Serratia [15], 128 µM (≈ 59.2 µg/mL); in the assay with Streptococcus pyogenes, 0.13 µM (≈ 0.0601 µg/mL).
`N[C@@H](C(=O)N[C@@H]1C(=O)N2C(C(=O)O)=C(C(F)(F)F)CC[C@H]12)c1ccc(Cl)c(Cl)c1`: the MIC in the assay with Enterococcus faecalis was found to be 16 µM (≈ 7.24 µg/mL); against Escherichia coli [1], 32 µM (≈ 14.5 µg/mL); against Klebsiella pneumoniae [2], 1 µM (≈ 0.452 µg/mL); in the assay with Streptococcus pneumoniae, 0.13 µM (≈ 0.0588 µg/mL); against Providencia stuartii it was 32 µM (≈ 14.5 µg/mL); against Klebsiella aerogenes [3] it was 128 µM (≈ 57.9 µg/mL). Moreover, the MIC against Acinetobacter was 128 µM (≈ 57.9 µg/mL); with Serratia [4], 128 µM (≈ 57.9 µg/mL); with Citrobacter it was 128 µM (≈ 57.9 µg/mL); against Providencia rettgeri it was 64 µM (≈ 28.9 µg/mL); against Haemophilus influenzae [5] it was 2 µM (≈ 0.904 µg/mL); with Haemophilus influenzae [6], 2 µM (≈ 0.904 µg/mL). The MIC with Enterobacter cloacae [7] was 128 µM (≈ 57.9 µg/mL); in the assay with Staphylococcus aureus [8], 64 µM (≈ 28.9 µg/mL); in the assay on Staphylococcus aureus [9] it was 0.5 µM (≈ 0.226 µg/mL); against Klebsiella aerogenes [10], 128 µM (≈ 57.9 µg/mL); against Escherichia coli [11], 16 µM (≈ 7.24 µg/mL); in the assay with Morganella morganii, 32 µM (≈ 14.5 µg/mL). In addition, the MIC in the assay on Staphylococcus aureus [12] worked out at 8 µM (≈ 3.62 µg/mL); in the assay on Klebsiella pneumoniae [13] it was 64 µM (≈ 28.9 µg/mL); in the assay on Salmonella it was 32 µM (≈ 14.5 µg/mL); against Enterobacter cloacae [14] it was 128 µM (≈ 57.9 µg/mL); against Serratia [15], 128 µM (≈ 57.9 µg/mL); in the assay on Streptococcus pyogenes, 0.02 µM (≈ 0.00904 µg/mL).
For the molecule `Cc1cccc([C@@H](N)C(=O)N[C@@H]2C(=O)N3C(C(=O)O)=C(C(F)(F)F)CC[C@H]23)c1`, the MIC was 8 µM (≈ 3.18 µg/mL) in the assay with Enterococcus faecalis; 2 µM (≈ 0.795 µg/mL) with Escherichia coli [1]; 1 µM (≈ 0.397 µg/mL) with Klebsiella pneumoniae [2]; 0.25 µM (≈ 0.0993 µg/mL) against Streptococcus pneumoniae; 8 µM (≈ 3.18 µg/mL) against Providencia stuartii; 4 µM (≈ 1.59 µg/mL) with Klebsiella aerogenes [3]. Moreover, the MIC was found to be 32 µM (≈ 12.7 µg/mL) against Acinetobacter; 16 µM (≈ 6.36 µg/mL) against Serratia [4]; 16 µM (≈ 6.36 µg/mL) in the assay with Citrobacter; 16 µM (≈ 6.36 µg/mL) against Providencia rettgeri; 2 µM (≈ 0.795 µg/mL) against Haemophilus influenzae [5]; 1 µM (≈ 0.397 µg/mL) in the assay with Haemophilus influenzae [6]. Moreover, the MIC was 32 µM (≈ 12.7 µg/mL) in the assay on Enterobacter cloacae [7]; 4 µM (≈ 1.59 µg/mL) against Staphylococcus aureus [8]; 1 µM (≈ 0.397 µg/mL) against Staphylococcus aureus [9]; 32 µM (≈ 12.7 µg/mL) in the assay on Klebsiella aerogenes [10]; 4 µM (≈ 1.59 µg/mL) in the assay with Escherichia coli [11]; 8 µM (≈ 3.18 µg/mL) in the assay with Morganella morganii. Besides, the MIC worked out at 4 µM (≈ 1.59 µg/mL) in the assay with Staphylococcus aureus [12]; 16 µM (≈ 6.36 µg/mL) against Klebsiella pneumoniae [13]; 8 µM (≈ 3.18 µg/mL) in the assay on Salmonella; 16 µM (≈ 6.36 µg/mL) in the assay with Enterobacter cloacae [14]; 32 µM (≈ 12.7 µg/mL) with Serratia [15]; 0.03 µM (≈ 0.0119 µg/mL) against Streptococcus pyogenes.
As for `N[C@@H](C(=O)N[C@@H]1C(=O)N2C(C(=O)O)=C(C(F)(F)F)CC[C@H]12)c1ccc(O)c(Cl)c1`, the MIC with Enterococcus faecalis is 4 µM (≈ 1.74 µg/mL); in the assay with Escherichia coli [1] it was 0.5 µM (≈ 0.217 µg/mL); in the assay on Klebsiella pneumoniae [2] it was 0.13 µM (≈ 0.0564 µg/mL); with Streptococcus pneumoniae, 0.06 µM (≈ 0.026 µg/mL); in the assay with Providencia stuartii, 4 µM (≈ 1.74 µg/mL); with Klebsiella aerogenes [3], 1 µM (≈ 0.434 µg/mL). For the same molecule, the MIC against Acinetobacter was determined as 32 µM (≈ 13.9 µg/mL); in the assay with Serratia [4], 4 µM (≈ 1.74 µg/mL); in the assay with Citrobacter, 4 µM (≈ 1.74 µg/mL); against Providencia rettgeri, 4 µM (≈ 1.74 µg/mL); in the assay with Haemophilus influenzae [5], 0.5 µM (≈ 0.217 µg/mL); with Haemophilus influenzae [6], 0.5 µM (≈ 0.217 µg/mL). Also, the MIC against Enterobacter cloacae [7] was 16 µM (≈ 6.94 µg/mL); against Staphylococcus aureus [8], 8 µM (≈ 3.47 µg/mL); in the assay on Staphylococcus aureus [9], 1 µM (≈ 0.434 µg/mL); in the assay with Klebsiella aerogenes [10] it was 2 µM (≈ 0.868 µg/mL); with Escherichia coli [11], 1 µM (≈ 0.434 µg/mL); in the assay on Morganella morganii, 4 µM (≈ 1.74 µg/mL). Moreover, the MIC against Staphylococcus aureus [12] is 8 µM (≈ 3.47 µg/mL); in the assay on Klebsiella pneumoniae [13] it was 4 µM (≈ 1.74 µg/mL); in the assay with Salmonella it was 0.125 µM (≈ 0.0542 µg/mL); in the assay on Enterobacter cloacae [14], 8 µM (≈ 3.47 µg/mL); with Serratia [15], 16 µM (≈ 6.94 µg/mL); in the assay with Streptococcus pyogenes, 0.03 µM (≈ 0.013 µg/mL).
